Our source for the TGI values is PubChem BioAssay (NCI).

Test systems include EKVX NSCLC; MOLT-4 leukemia; SK-MEL-5 melanoma; UO-31 renal; MDA-N; CCRF-CEM leukemia; TK-10 renal; SNB-19 CNS; MDA-MB-231 breast; RPMI-8226 leukemia.
Holding throughout (assay): growth of human tumour cells (NCI), 48 h

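Protocol summary: plate cells (96-well), add compound at 5 concentrations, incubate 48 h, interpolate endpoints linearly. At the TGI there is no net growth.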

Regarding `CC(C)CN1CN(c2ccccc2)C2(CCN(CC(C)(c3ccc(F)cc3)C3OCCO3)CC2)C1=O` (centres undefined), the TGI in the test on EKVX NSCLC worked out at 19.8 µM; with MOLT-4 leukemia, 7.32 µM; in the test with SK-MEL-5 melanoma, 4.95 µM; in the test with UO-31 renal it was 9.77 µM; in the test with MDA-N it was 19.6 µM; with CCRF-CEM leukemia, 18.1 µM. Also, the values for the TGI with TK-10 renal and in the test with SNB-19 CNS were 23.4 µM and 21.9 µM, respectively.

With `CC12CC3c4ccccc4CN1C3(c1ccccc1)OC2=O` (centres undefined), the TGI in the test on EKVX NSCLC, in the test on MOLT-4 leukemia, with MDA-MB-231 breast, with SK-MEL-5 melanoma, with UO-31 renal and in the test with CCRF-CEM leukemia was greater than 100 µM each time. In addition, the TGI in the test with TK-10 renal and in the test on SNB-19 CNS was greater than 100 µM each time.

`c1cnc2c(c1)-n1cccc1C1(CCOCC1)NN2`: the TGI in the test on EKVX NSCLC, in the test on MOLT-4 leukemia, in the test on SK-MEL-5 melanoma, in the test on RPMI-8226 leukemia, in the test on UO-31 renal and in the test on CCRF-CEM leukemia was greater than 100 µM in each case. Moreover, the TGI with TK-10 renal and in the test with SNB-19 CNS was greater than 100 µM in each case.

As to `O=C(NCCNCCO)N/N=C/c1cccc([N+](=O)[O-])c1`, the TGI in the test on MOLT-4 leukemia, with SK-MEL-5 melanoma, in the test on RPMI-8226 leukemia, in the test on UO-31 renal, in the test on CCRF-CEM leukemia and in the test on TK-10 renal was greater than 100 µM throughout.

As for `COc1ccc(NC(=S)NN=C(C)c2cccc(C(C)=NNC(=S)Nc3ccc(OC)cc3)n2)cc1`, the TGI in the test on EKVX NSCLC, in the test on MOLT-4 leukemia, in the test with SK-MEL-5 melanoma, with RPMI-8226 leukemia, with UO-31 renal and with CCRF-CEM leukemia was greater than 100 µM each time. Also, the TGI in the test on TK-10 renal and with SNB-19 CNS was greater than 100 µM throughout.

`Nc1cc2c(cc1[N+](=O)[O-])[nH]c1c(-c3ccccc3)nccc12`: the TGI with EKVX NSCLC was greater than 80.5 µM; in the test with MOLT-4 leukemia it was 19.8 µM; in the test with SK-MEL-5 melanoma, 31.7 µM; in the test on RPMI-8226 leukemia it was greater than 100 µM; in the test on UO-31 renal it was 28.9 µM; in the test with CCRF-CEM leukemia, 74.7 µM. In the test with SNB-19 CNS, this molecule returned a TGI of 76.7 µM.

In the case of `Cc1cc(Br)c(N2C3=C(CC4=C2CCCC4=O)C(=O)CCC3)c(Br)c1`, the TGI in the test on EKVX NSCLC, with MOLT-4 leukemia, in the test on SK-MEL-5 melanoma, in the test on RPMI-8226 leukemia, in the test with UO-31 renal and in the test with CCRF-CEM leukemia was greater than 100 µM in each case. Also, the TGI with TK-10 renal and in the test with SNB-19 CNS was greater than 100 µM in each case.

With `N=C(N)/N=C(/C=C/c1ccccc1)CC1OC(=O)c2ccccc21` (centres undefined), the TGI in the test on EKVX NSCLC, in the test on MOLT-4 leukemia, in the test on SK-MEL-5 melanoma, in the test on RPMI-8226 leukemia, in the test on UO-31 renal and in the test with CCRF-CEM leukemia was greater than 100 µM in each case. In the test with SNB-19 CNS, this molecule registered a TGI greater than 100 µM.

Consider `COc1ccc(-n2sc3ncc(-c4ccccc4)cc3c2=O)cc1`, for which the TGI in the test on EKVX NSCLC was greater than 100 µM; in the test on SK-MEL-5 melanoma, greater than 100 µM; with RPMI-8226 leukemia, 66.8 µM; with UO-31 renal, 49.7 µM; in the test on CCRF-CEM leukemia it was greater than 100 µM; in the test on TK-10 renal it was greater than 100 µM. The TGI with SNB-19 CNS stood at 80.8 µM.

Consider `Cc1ccc(OP2(=O)Oc3ccc4ccccc4c3CN2c2ccc(Cl)cc2)cc1C` (centres undefined), for which the TGI with EKVX NSCLC, with MOLT-4 leukemia, in the test on SK-MEL-5 melanoma, with RPMI-8226 leukemia, in the test on UO-31 renal and with CCRF-CEM leukemia was greater than 100 µM throughout. This molecule registered a TGI in the test with SNB-19 CNS greater than 100 µM.

With `Cc1ccc(-c2cc(-c3ccco3)nc(N)n2)o1`, the TGI with EKVX NSCLC, in the test on MOLT-4 leukemia, with SK-MEL-5 melanoma, in the test with RPMI-8226 leukemia, with UO-31 renal and with CCRF-CEM leukemia was greater than 100 µM each time. Besides, the TGI in the test with TK-10 renal and in the test on SNB-19 CNS was greater than 100 µM each time.

As for `N#CI1OC(=O)c2ccccc21`, the TGI in the test on EKVX NSCLC, with MOLT-4 leukemia, in the test with MDA-MB-231 breast, in the test with SK-MEL-5 melanoma, in the test on RPMI-8226 leukemia and with UO-31 renal was greater than 100 µM in each case. The TGI with CCRF-CEM leukemia and with TK-10 renal was greater than 100 µM each time.

Regarding `CC(=O)N[C@@H](Cc1ccc(O)cn1)C(=O)NCc1cccc(F)c1`, the TGI in the test with EKVX NSCLC, in the test on SK-MEL-5 melanoma, in the test with RPMI-8226 leukemia, with UO-31 renal, with MDA-N and with CCRF-CEM leukemia was greater than 100 µM in each case. Besides, the TGI in the test on TK-10 renal and in the test with SNB-19 CNS was greater than 100 µM in each case.

`COc1cc2c(cc1O)[C@H](C)C(c1ccc(Cl)cc1)O2` (some centres undefined): the TGI is 92.3 µM with EKVX NSCLC; 40.9 µM with MOLT-4 leukemia; 31.8 µM with SK-MEL-5 melanoma; 25.6 µM in the test on RPMI-8226 leukemia; 79.4 µM in the test on UO-31 renal; 39 µM in the test on CCRF-CEM leukemia. In addition, the TGI was 78.8 µM with TK-10 renal and greater than 100 µM with SNB-19 CNS.

For the molecule `O=c1[nH]cnc2c1nnn2CCCn1nnc2c(=O)[nH]cnc21`, the TGI in the test on EKVX NSCLC, in the test with MOLT-4 leukemia, with SK-MEL-5 melanoma, in the test on RPMI-8226 leukemia, in the test with UO-31 renal and with CCRF-CEM leukemia was greater than 100 µM throughout. For the same molecule, the TGI with TK-10 renal and in the test with SNB-19 CNS was greater than 100 µM throughout.

Consider `c1ccc2[nH]c(-c3nc4ccccc4o3)nc2c1`, for which the TGI in the test with EKVX NSCLC, in the test on MOLT-4 leukemia, in the test on SK-MEL-5 melanoma, with RPMI-8226 leukemia, in the test with UO-31 renal and with CCRF-CEM leukemia was greater than 100 µM throughout. This molecule registered a TGI in the test on TK-10 renal greater than 100 µM.

With `COC(=O)/C(=C/c1ccc(OC)cc1)C(C(=O)O)=C(C)C`, the TGI in the test on EKVX NSCLC, in the test with MOLT-4 leukemia, with SK-MEL-5 melanoma, in the test on RPMI-8226 leukemia, in the test on UO-31 renal and with CCRF-CEM leukemia was greater than 100 µM in each case. The TGI in the test on TK-10 renal and with SNB-19 CNS was greater than 100 µM throughout.
